Results: ChEMBL document CHEMBL4507277

Legend:
[1] = system: Tyrosine-protein kinase ABL1 (Homo sapiens), P00519 [F317L]; conditions: Compound concentration 1000.0 nM
[2] = target: Tyrosine-protein kinase ABL1 (Homo sapiens) (UniProt P00519); conditions: Compound concentration 1000.0 nM
[3] = system: ALK tyrosine kinase receptor (Homo sapiens), Q9UM73 [L1196M]; conditions: Compound concentration 1000.0 nM
[4] = target: Ankyrin repeat and protein kinase domain-containing protein 1 (Homo sapiens) (UniProt Q8NFD2); conditions: Compound concentration 1000.0 nM
[5] = system: Serine/threonine-protein kinase B-raf (Homo sapiens), P15056 [V600E]; conditions: Compound concentration 1000.0 nM
[6] = target: Dual specificity protein kinase CLK1 (Homo sapiens) (UniProt P49759); conditions: Compound concentration 1000.0 nM
[7] = target: Dual specificity protein kinase CLK2 (Homo sapiens) (UniProt P49760); conditions: Compound concentration 1000.0 nM
[8] = target: Serine/threonine-protein kinase MRCK gamma (Homo sapiens) (UniProt Q6DT37); conditions: Compound concentration 1000.0 nM
[9] = system: Epidermal growth factor receptor (Homo sapiens), P00533 [G719S]; conditions: Compound concentration 1000.0 nM
[10] = system: Epidermal growth factor receptor (Homo sapiens), P00533 [L858R,T790M]; conditions: Compound concentration 1000.0 nM
[11] = target: Eukaryotic translation initiation factor 2-alpha kinase 1 (Homo sapiens) (UniProt Q9BQI3); conditions: Compound concentration 1000.0 nM
[12] = target: Mitogen-activated protein kinase 4 (Homo sapiens) (UniProt P31152); conditions: Compound concentration 1000.0 nM
[13] = target: Focal adhesion kinase 1 (Homo sapiens) (UniProt Q05397); conditions: Compound concentration 1000.0 nM
[14] = target: Tyrosine-protein kinase Fer (Homo sapiens) (UniProt P16591); conditions: Compound concentration 1000.0 nM
[15] = target: Tyrosine-protein kinase FRK (Homo sapiens) (UniProt P42685); conditions: Compound concentration 1000.0 nM
Chain of Tyrosine-protein kinase FRK (Homo sapiens) (P42685 whole entry): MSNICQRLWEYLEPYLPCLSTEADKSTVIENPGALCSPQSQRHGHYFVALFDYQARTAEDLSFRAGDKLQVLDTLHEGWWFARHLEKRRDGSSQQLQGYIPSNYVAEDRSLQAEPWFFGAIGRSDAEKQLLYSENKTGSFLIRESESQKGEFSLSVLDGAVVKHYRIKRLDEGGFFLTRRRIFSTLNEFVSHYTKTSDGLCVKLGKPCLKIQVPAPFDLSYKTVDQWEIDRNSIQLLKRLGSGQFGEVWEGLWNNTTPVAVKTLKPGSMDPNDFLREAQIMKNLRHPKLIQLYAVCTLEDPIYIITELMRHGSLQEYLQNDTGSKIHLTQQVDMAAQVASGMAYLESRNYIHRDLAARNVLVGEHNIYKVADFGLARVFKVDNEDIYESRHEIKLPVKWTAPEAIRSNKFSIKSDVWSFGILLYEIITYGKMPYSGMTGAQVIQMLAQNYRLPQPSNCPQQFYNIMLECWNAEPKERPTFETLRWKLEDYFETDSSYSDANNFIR

[16] = target: Insulin-like growth factor 1 receptor (Homo sapiens) (UniProt P08069); conditions: Compound concentration 1000.0 nM
[17] = target: Interleukin-1 receptor-associated kinase 1 (Homo sapiens) (UniProt P51617); conditions: Compound concentration 1000.0 nM
Chain of Interleukin-1 receptor-associated kinase 1 (Homo sapiens) (P51617 whole entry, looked up): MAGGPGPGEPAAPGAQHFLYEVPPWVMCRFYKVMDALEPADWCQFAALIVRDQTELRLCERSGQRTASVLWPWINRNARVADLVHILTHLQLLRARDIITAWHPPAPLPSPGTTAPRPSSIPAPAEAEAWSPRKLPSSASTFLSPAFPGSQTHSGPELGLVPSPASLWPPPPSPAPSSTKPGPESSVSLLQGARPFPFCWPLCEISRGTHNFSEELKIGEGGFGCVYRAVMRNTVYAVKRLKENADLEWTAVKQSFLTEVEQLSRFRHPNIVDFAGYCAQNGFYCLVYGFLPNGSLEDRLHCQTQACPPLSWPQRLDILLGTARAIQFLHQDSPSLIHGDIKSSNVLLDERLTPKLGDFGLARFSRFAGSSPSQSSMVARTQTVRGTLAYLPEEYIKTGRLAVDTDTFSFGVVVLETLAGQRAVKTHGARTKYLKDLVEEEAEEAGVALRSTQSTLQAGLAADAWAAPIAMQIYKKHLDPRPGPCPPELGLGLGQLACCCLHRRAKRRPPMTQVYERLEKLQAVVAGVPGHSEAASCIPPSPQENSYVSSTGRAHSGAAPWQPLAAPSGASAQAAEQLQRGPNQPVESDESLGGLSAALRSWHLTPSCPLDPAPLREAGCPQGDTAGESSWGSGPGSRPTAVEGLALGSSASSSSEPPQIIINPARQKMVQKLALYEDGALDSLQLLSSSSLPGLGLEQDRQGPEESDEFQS

[18] = system: Mast/stem cell growth factor receptor Kit (Homo sapiens), P10721 [L576P]; conditions: Compound concentration 1000.0 nM
[19] = system: Leucine-rich repeat serine/threonine-protein kinase 2 (Homo sapiens), Q5S007 [G2019S]; conditions: Compound concentration 1000.0 nM
[20] = target: Mitogen-activated protein kinase kinase kinase 13 (Homo sapiens) (UniProt O43283); conditions: Compound concentration 1000.0 nM
[21] = target: Maternal embryonic leucine zipper kinase (Homo sapiens) (UniProt Q14680); conditions: Compound concentration 1000.0 nM
Chain of Maternal embryonic leucine zipper kinase (Homo sapiens) (Q14680 whole entry, looked up): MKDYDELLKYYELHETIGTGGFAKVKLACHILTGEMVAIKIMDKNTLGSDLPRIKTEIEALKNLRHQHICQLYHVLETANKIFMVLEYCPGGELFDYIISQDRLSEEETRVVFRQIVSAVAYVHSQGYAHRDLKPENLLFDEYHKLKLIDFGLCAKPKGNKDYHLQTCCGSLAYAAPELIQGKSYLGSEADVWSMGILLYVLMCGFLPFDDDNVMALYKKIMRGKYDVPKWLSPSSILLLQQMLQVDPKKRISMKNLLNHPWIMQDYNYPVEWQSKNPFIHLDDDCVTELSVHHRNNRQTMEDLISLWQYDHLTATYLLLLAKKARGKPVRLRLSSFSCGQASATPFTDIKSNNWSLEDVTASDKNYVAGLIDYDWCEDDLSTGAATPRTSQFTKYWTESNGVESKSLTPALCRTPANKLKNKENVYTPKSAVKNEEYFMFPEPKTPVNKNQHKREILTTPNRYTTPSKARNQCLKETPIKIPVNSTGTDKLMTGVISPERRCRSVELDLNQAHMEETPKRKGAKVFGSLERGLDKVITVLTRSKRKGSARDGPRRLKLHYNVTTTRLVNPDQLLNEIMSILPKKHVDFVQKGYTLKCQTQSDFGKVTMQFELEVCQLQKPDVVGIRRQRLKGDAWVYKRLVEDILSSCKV

[22] = target: Muscle, skeletal receptor tyrosine-protein kinase (Homo sapiens) (UniProt O15146); conditions: Compound concentration 1000.0 nM
[23] = target: Serine/threonine-protein kinase Nek10 (Homo sapiens) (UniProt Q6ZWH5); conditions: Compound concentration 1000.0 nM
[24] = target: Serine/threonine-protein kinase Nek11 (Homo sapiens) (UniProt Q8NG66); conditions: Compound concentration 1000.0 nM
[25] = target: Serine/threonine-protein kinase Nek5 (Homo sapiens) (UniProt Q6P3R8); conditions: Compound concentration 1000.0 nM
[26] = target: Serine/threonine-protein kinase Nek6 (Homo sapiens) (UniProt Q9HC98); conditions: Compound concentration 1000.0 nM
[27] = target: Serine/threonine-protein kinase PAK 2 (Homo sapiens) (UniProt Q13177); conditions: Compound concentration 1000.0 nM
[28] = target: Serine/threonine-protein kinase PAK 3 (Homo sapiens) (UniProt O75914); conditions: Compound concentration 1000.0 nM
Chain of Serine/threonine-protein kinase PAK 3 (Homo sapiens) (O75914 whole entry, looked up): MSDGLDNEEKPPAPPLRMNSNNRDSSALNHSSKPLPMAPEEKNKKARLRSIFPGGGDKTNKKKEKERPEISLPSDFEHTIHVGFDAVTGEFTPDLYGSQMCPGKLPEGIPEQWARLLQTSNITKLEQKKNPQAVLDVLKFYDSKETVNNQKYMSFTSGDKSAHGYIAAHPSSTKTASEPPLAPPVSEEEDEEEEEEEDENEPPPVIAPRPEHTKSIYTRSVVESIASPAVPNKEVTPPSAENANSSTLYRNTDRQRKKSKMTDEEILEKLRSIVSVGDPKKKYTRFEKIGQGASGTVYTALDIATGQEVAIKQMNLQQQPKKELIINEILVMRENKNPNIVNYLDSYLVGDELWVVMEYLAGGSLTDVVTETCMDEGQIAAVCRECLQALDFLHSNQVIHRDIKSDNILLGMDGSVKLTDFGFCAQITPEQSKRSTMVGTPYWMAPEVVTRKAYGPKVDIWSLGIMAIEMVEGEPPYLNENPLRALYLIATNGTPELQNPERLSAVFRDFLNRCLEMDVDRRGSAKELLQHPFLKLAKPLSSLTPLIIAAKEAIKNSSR

[29] = target: Serine/threonine-protein kinase PAK 5 (Homo sapiens) (UniProt Q9P286); conditions: Compound concentration 1000.0 nM
[30] = target: Platelet-derived growth factor receptor beta (Homo sapiens) (UniProt P09619); conditions: Compound concentration 1000.0 nM
[31] = system: Phosphatidylinositol 4,5-bisphosphate 3-kinase catalytic subunit alpha isoform (Homo sapiens), P42336 [E542K]; conditions: Compound concentration 1000.0 nM
Chain of Phosphatidylinositol 4,5-bisphosphate 3-kinase catalytic subunit alpha isoform (Homo sapiens), P42336 [E542K] (P42336 whole entry E542K, canonical isoform): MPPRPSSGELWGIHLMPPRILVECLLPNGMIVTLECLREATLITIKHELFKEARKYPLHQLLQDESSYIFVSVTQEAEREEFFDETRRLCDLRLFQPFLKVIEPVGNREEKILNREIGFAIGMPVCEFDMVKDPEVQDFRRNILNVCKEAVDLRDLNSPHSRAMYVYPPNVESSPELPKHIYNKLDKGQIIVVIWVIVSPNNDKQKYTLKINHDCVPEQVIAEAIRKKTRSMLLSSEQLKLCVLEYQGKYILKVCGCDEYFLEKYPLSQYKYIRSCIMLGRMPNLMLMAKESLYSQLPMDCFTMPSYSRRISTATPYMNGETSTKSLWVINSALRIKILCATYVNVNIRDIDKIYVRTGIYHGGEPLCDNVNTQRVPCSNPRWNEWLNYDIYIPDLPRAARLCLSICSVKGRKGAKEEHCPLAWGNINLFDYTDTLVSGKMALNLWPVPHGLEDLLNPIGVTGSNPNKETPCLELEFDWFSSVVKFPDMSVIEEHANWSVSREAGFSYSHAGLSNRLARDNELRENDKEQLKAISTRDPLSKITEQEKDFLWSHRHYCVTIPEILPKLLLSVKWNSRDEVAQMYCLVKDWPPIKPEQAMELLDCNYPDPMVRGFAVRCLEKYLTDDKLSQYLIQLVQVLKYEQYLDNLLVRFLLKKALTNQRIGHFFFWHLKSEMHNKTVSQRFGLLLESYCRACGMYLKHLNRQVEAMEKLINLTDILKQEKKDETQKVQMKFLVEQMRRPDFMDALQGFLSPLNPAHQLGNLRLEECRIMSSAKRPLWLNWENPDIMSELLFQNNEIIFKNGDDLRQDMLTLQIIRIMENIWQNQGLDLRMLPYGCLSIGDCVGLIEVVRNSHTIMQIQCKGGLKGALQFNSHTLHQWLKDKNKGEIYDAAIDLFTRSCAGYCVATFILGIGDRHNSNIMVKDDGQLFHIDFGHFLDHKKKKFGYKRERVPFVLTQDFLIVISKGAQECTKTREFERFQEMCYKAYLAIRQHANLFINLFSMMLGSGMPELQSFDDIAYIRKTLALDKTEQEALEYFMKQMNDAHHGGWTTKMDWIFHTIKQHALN

[32] = system: Phosphatidylinositol 4,5-bisphosphate 3-kinase catalytic subunit alpha isoform (Homo sapiens), P42336 [H1047Y]; conditions: Compound concentration 1000.0 nM
[33] = target: Phosphatidylinositol 5-phosphate 4-kinase type-2 gamma (Homo sapiens) (UniProt Q8TBX8); conditions: Compound concentration 1000.0 nM
[34] = target: Interferon-induced, double-stranded RNA-activated protein kinase (Homo sapiens) (UniProt P19525); conditions: Compound concentration 1000.0 nM
Chain of Interferon-induced, double-stranded RNA-activated protein kinase (Homo sapiens) (P19525 whole entry): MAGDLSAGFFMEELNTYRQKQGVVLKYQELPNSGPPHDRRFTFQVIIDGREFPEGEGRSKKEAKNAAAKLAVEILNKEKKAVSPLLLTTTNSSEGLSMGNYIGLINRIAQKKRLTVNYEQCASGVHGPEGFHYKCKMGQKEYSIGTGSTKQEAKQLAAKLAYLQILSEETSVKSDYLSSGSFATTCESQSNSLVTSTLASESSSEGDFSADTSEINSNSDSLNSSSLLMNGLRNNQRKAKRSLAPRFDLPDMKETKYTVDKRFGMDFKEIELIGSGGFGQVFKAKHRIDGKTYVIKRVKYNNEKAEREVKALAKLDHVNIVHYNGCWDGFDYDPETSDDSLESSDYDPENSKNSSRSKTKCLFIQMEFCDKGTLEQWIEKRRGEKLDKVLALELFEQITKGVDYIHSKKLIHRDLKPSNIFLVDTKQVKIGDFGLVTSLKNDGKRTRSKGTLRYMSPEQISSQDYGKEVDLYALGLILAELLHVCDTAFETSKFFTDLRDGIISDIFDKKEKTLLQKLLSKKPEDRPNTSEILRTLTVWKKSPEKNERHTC

[35] = target: Serine/threonine-protein kinase RIO1 (Homo sapiens) (UniProt Q9BRS2); conditions: Compound concentration 1000.0 nM
Chain of Serine/threonine-protein kinase RIO1 (Homo sapiens) (Q9BRS2 whole entry): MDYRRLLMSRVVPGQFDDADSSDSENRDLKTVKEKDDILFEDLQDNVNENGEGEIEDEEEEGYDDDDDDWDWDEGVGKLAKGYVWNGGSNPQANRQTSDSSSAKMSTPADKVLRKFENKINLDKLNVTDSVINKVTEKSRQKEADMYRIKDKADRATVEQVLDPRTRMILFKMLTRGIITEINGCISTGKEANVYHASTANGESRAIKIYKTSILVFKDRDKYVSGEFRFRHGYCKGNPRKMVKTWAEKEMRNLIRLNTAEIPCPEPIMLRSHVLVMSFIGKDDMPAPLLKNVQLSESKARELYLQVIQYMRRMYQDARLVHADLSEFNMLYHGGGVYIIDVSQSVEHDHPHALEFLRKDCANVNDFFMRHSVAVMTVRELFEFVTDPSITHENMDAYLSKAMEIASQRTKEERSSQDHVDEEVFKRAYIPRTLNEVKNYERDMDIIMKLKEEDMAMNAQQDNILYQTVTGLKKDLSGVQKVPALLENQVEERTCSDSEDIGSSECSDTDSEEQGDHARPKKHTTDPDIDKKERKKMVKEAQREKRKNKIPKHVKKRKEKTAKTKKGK

[36] = target: Ribosomal protein S6 kinase alpha-1 (Homo sapiens) (UniProt Q15418); conditions: Compound concentration 1000.0 nM
[37] = target: Uncharacterized serine/threonine-protein kinase SBK3 (Homo sapiens) (UniProt P0C264); conditions: Compound concentration 1000.0 nM
[38] = target: Serine/threonine-protein kinase 36 (Homo sapiens) (UniProt Q9NRP7); conditions: Compound concentration 1000.0 nM
[39] = target: Activated CDC42 kinase 1 (Homo sapiens) (UniProt Q07912); conditions: Compound concentration 1000.0 nM
[40] = target: Serine/threonine-protein kinase WNK4 (Homo sapiens) (UniProt Q96J92); conditions: Compound concentration 1000.0 nM
[41] = target: 5-hydroxytryptamine receptor 1E (Homo sapiens) (UniProt P28566); conditions: Compound concentration 10.0 uM
Chain of 5-hydroxytryptamine receptor 1E (Homo sapiens) (P28566 whole entry): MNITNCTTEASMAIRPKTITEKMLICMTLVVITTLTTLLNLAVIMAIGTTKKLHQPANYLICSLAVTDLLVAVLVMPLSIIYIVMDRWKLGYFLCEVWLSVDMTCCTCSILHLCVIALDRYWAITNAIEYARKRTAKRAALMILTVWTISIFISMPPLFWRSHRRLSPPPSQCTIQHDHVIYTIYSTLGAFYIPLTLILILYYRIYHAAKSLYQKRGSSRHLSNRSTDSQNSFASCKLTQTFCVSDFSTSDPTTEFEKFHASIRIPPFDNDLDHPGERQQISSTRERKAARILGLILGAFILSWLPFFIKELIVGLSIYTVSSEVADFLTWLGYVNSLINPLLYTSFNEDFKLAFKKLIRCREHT

[42] = target: Kappa-type opioid receptor (Homo sapiens) (UniProt P41145); conditions: Compound concentration 10.0 uM
[43] = target: GABA-A receptor; anion channel (Rattus norvegicus) (UniProt O09028+P15431+P18506+P18508+P19969+P20236+P23574+P23576+P28471+P28473+P30191+P62813+P63079+P63138+Q91ZM7+Q9ES14); conditions: Compound concentration 10.0 uM

## CCS(=O)(=O)c1cc2cc(C[C@@](O)(CC(C)(C)c3ccc(F)cc3C(N)=O)C(F)(F)F)[nH]c2cn1
[1]
  residual activity: 61%
[2]
  residual activity: 71%
[3]
  residual activity: 100%
[4]
  residual activity: 70%
[5]
  residual activity: 100%
[6]
  residual activity: 100%
[7]
  residual activity: 100%
[8]
  residual activity: 96%
[9]
  residual activity: 100%
[10]
  residual activity: 83%
[11]
  residual activity: 80%
[12]
  residual activity: 84%
[13]
  residual activity: 100%
[14]
  residual activity: 74%
[15]
  residual activity: 100%
[16]
  residual activity: 100%
[17]
  residual activity: 80%
[18]
  residual activity: 100%
[19]
  residual activity: 100%
[20]
  residual activity: 82%
[21]
  residual activity: 100%
[22]
  residual activity: 60%
[23]
  residual activity: 88%
[24]
  residual activity: 100%
[25]
  residual activity: 100%
[26]
  residual activity: 100%
[27]
  residual activity: 94%
[28]
  residual activity: 100%
[29]
  residual activity: 100%
[30]
  residual activity: 100%
[31]
  residual activity: 74%
[32]
  residual activity: 95%
[33]
  residual activity: 100%
[34]
  residual activity: 61%
[35]
  residual activity: 50%
[36]
  residual activity: 0%
[37]
  residual activity: 94%
[38]
  residual activity: 98%
[39]
  residual activity: 100%
[40]
  residual activity: 84%
[41]
  inhibition: 11.2%
[42]
  inhibition: 28.3%
[43]
  inhibition: 3.48%

## CCS(=O)(=O)c1cc2cc(C[C@](O)(CC(C)(C)c3ccc(F)cc3C(N)=O)C(F)(F)F)[nH]c2cn1
[1]
  residual activity: 90%
[2]
  residual activity: 100%
[3]
  residual activity: 87%
[4]
  residual activity: 89%
[5]
  residual activity: 100%
[6]
  residual activity: 99%
[7]
  residual activity: 100%
[8]
  residual activity: 100%
[9]
  residual activity: 100%
[10]
  residual activity: 83%
[11]
  residual activity: 100%
[12]
  residual activity: 100%
[13]
  residual activity: 97%
[14]
  residual activity: 96%
[15]
  residual activity: 80%
[16]
  residual activity: 100%
[17]
  residual activity: 99%
[18]
  residual activity: 83%
[19]
  residual activity: 100%
[20]
  residual activity: 90%
[21]
  residual activity: 100%
[22]
  residual activity: 94%
[23]
  residual activity: 100%
[24]
  residual activity: 93%
[25]
  residual activity: 100%
[26]
  residual activity: 100%
[27]
  residual activity: 86%
[28]
  residual activity: 100%
[29]
  residual activity: 100%
[30]
  residual activity: 100%
[31]
  residual activity: 66%
[32]
  residual activity: 100%
[33]
  residual activity: 100%
[34]
  residual activity: 52%
[35]
  residual activity: 80%
[36]
  residual activity: 87%
[37]
  residual activity: 100%
[38]
  residual activity: 100%
[39]
  residual activity: 100%
[40]
  residual activity: 100%
[41]
  inhibition: 4.75%
[42]
  inhibition: 23.4%
[43]
  inhibition: -1.62%
